Drawing on US8492391B2, “Substituted 6-(2-hydroxybenzylamino)purine derivatives, their use as medicaments and compositions containing these derivatives” (Univerzita Palackeho V Olomouci, priority 2009, dated 2013), this text covers IC50 for 36 molecules.

Read-outs that look alike come from different tables or passages of the source.

The target in one series is T1, CDK2/cyclin E (Homo sapiens, UniProt P24941).
T1 construct: made in house; host or cells: Sf9 insect cells, baculovirus co-infection
Put plainly: CDK2/cyclin E kinase inhibition assay. In kind it is biochemical. The settings on record: kinase inhibitory activity, 15 μM ATP, histone substrate. The method, then: (§1) Selected compounds were tested for CDK1/cyclin B, CDK2/cyclin E, CDK5/p25, CDK7/cyclin H and CDK9/cyclin T inhibitory activity to determine the basic relationships between their structure and the inhibitory activity. Cdk/cyclin complexes were expressed in Sf9 cells co-infected with appropriate baculoviral construct. The cells were harvested 70 hours post infection in lysis buffer (50 mM Tris pH 7.4, 150 mM NaCl, 5 mM EDTA, 20 mM NaF, 1% Tween 20, protease inhibitors) for 30 min on ice and the soluble fraction was recovered by centrifugation at 14.000 g for […]. The protein extract was stored at −80° C. until use. The final point test system for kinase activity measurement was used to carry out experiments on the kinetics under linear conditions. […] ATP and tested compound in a final volume of 20 μl, all in reaction buffer: 50 mM Hepes pH 7.4, 10 mM MgCl2, 5 mM EGTA, 10 mM 2-glycerolphosphate, 1 mM NaF, 1 mM DTT and protease inhibitors. After 30 min, the incubations were stopped by adding 5% H3PO4 and then the proteins were separated by phosphocellulose binding. The measurement of kinase inhibition employed the digital imaging analyzer BAS 1800. The kinase activity was expressed as a percentage of maximum activity and the IC50 value was determined by graphic analysis. The kinase activity is expressed as a percentage of maximum activity (FIG. 1).

The next series has as its target T2, CDK9/cyclin T (Homo sapiens, UniProt P50750).
T2 construct: made in house; host or cells: Sf9 insect cells, baculovirus co-infection
The series is described as follows: CDK9/cyclin T kinase inhibition assay. Type of series: biochemical. The settings on record: kinase inhibitory activity, 15 μM ATP, (YSPTSPS)3 peptide substrate. The protocol:
as §1

In series [1] the test system is K562 (human chronic myelogenous leukaemia). The series is described as follows: Calcein AM cytotoxicity assay, K562. Type of series: cell-based. The settings on record: read-out: Cytotoxic activity IC50 (μM) K562. From the text: (§2) Cytotoxicity of the compounds is the major property determining their anticancer effect in vivo. One of the parameters used, as the basis for cytotoxicity assays, is the metabolic activity of viable cells. For example, a microtiter assay, which uses the Calcein AM, is now widely used to quantitate cell proliferation and cytotoxicity. For instance, this assay is used in drug screening programs and in chemosensitivity testing. Because only metabolically active cells cleave Calcein AM, these assays detect viable cells exclusively. The quantity of cleaved Calcein AM corresponds to the number of vital cells in the culture. We have been using the following cell lines: MCF7 (human breast adenocarcinoma), K562 (human chronic myelogenous leukaemia), HOS (human osteogenic sarcoma), HeLa (human cervical carcinoma), HL 60 (human promyelocytic leukaemia), G 361 (human malignant melanoma), CEM (human lymphoblastoid leukaemia). All cell lines were grown in DMEM medium (Gibco BRL) supplemented with 10% (v/v) fetal bovine serum and L-glutamine and maintained at 37° C. in a humidified atmosphere with 5% CO2. For cytotoxicity assays, 10^4 cells were seeded into each well of 96 well plate, allowed to stabilize for at least 2 h and then tested compounds were added at various concentrations ranging from 100 to 0.1 μM in triplicates. Three days after drug addition Calcein AM solution (Molecular Probes) was added and let to enter the cells for 1 hour. Fluorescence of viable cells was quantified using Fluoroskan Ascent (Microsystems).

The subject of series [2] is HOS (human osteogenic sarcoma). Put plainly: Calcein AM cytotoxicity assay, HOS. Type of series: cell-based. The settings on record: read-out: Cytotoxic activity IC50 (μM) HOS.
From the text: as §2

The test system of series [3] is MCF7 (human breast adenocarcinoma). The series is described as follows: Calcein AM cytotoxicity assay, MCF7. Type of series: cell-based. The note with it: MCF7, read-out: Cytotoxic activity IC50 (μM) MCF7.
From the text: as §2

T2 sequence (P50750 whole entry, species assumed): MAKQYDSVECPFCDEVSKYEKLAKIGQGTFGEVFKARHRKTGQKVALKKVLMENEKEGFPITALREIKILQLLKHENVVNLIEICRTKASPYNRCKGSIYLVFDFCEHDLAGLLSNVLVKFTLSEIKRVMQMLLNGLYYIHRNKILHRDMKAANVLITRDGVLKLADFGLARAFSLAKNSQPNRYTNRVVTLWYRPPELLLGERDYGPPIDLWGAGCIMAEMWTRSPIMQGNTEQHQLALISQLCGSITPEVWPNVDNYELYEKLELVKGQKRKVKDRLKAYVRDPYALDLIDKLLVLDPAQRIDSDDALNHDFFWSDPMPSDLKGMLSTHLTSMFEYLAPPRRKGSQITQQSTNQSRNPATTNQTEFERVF
T2 sequence (O60563 whole entry partner, species assumed): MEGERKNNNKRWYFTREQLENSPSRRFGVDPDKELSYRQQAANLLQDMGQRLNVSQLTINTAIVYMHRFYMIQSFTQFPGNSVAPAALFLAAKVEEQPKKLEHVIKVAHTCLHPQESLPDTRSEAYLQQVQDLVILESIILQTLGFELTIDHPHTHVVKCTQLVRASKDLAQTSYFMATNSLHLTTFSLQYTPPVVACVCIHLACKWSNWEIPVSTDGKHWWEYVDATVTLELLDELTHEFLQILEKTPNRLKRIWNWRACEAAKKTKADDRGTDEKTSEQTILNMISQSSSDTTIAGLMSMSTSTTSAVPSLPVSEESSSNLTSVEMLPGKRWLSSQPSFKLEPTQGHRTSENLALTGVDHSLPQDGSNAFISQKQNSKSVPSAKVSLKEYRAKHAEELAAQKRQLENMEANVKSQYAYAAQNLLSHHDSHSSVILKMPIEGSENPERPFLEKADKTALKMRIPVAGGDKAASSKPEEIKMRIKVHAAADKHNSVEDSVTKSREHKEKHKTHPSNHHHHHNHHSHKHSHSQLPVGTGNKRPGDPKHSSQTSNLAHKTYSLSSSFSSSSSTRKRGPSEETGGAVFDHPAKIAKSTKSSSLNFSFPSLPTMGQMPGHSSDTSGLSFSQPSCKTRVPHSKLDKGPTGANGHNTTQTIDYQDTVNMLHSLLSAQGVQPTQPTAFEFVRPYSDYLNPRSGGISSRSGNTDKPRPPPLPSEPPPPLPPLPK

For orientation: IC50 means the midpoint of a concentration-inhibition curve. Take `Cn1cnc2c(NCc3cc(Cl)ccc3O)nc(NC3CCCCC3N)nc21` (centres unmarked) [Compound 1]: the IC50 was 0.29 µM against CDK2/cyclin E; 0.18 µM against CDK9/cyclin T; 78 µM in series [1] (Homo sapiens); 65 µM in series [2] (Homo sapiens); 43 µM in series [3] (Homo sapiens).
In the case of `Cn1cnc2c(NCc3cc(Cl)ccc3O)nc(NC3CCC(N)CC3)nc21` (centres unmarked) [Compound 2], the IC50 against CDK2/cyclin E is 0.27 µM; on CDK9/cyclin T it was 0.15 µM; in series [1] (Homo sapiens), 82 µM; in series [2] (Homo sapiens), 64 µM; in series [3] (Homo sapiens), 46 µM.
Take `CCC(CO)Nc1nc(NCc2cc(Cl)ccc2O)c2ncn(C)c2n1` (centres unmarked) [Compound 3]: the IC50 on CDK2/cyclin E is 0.3 µM; against CDK9/cyclin T it was 0.12 µM; in series [1] (Homo sapiens) it was 84 µM; in series [2] (Homo sapiens), 71 µM; in series [3] (Homo sapiens), 55 µM.
Take `CC(C)C(CO)Nc1nc(NCc2cc(Cl)ccc2O)c2ncn(C)c2n1` (centres unmarked) [Compound 4]: the IC50 against CDK2/cyclin E was 0.25 µM; against CDK9/cyclin T it was 0.08 µM.
Turning to `Cn1cnc2c(NCc3cc(F)ccc3O)nc(NC3CCCCC3N)nc21` (centres unmarked) [Compound 7], the IC50 at CDK2/cyclin E was 0.26 µM; on CDK9/cyclin T it was 0.15 µM; in series [1] (Homo sapiens), 61 µM; in series [2] (Homo sapiens) it was 47 µM; in series [3] (Homo sapiens), 35 µM.
Turning to `Cn1cnc2c(NCc3cc(F)ccc3O)nc(NC3CCC(N)CC3)nc21` (centres unmarked) [Compound 8], the IC50 at CDK2/cyclin E is 0.25 µM; against CDK9/cyclin T, 0.12 µM; in series [1] (Homo sapiens) it was 64 µM; in series [2] (Homo sapiens), 50 µM; in series [3] (Homo sapiens), 39 µM.
Consider `CCC(CO)Nc1nc(NCc2cc(F)ccc2O)c2ncn(C)c2n1` (centres unmarked) [Compound 9], for which the IC50 was 0.3 µM against CDK2/cyclin E; 0.17 µM at CDK9/cyclin T; 67 µM in series [1] (Homo sapiens); 53 µM in series [2] (Homo sapiens); 42 µM in series [3] (Homo sapiens).
For `COc1cccc(CNc2nc(NC3CCCCC3N)nc3c2ncn3C)c1O` (centres unmarked) [Compound 31], in that order: 0.26 µM, 0.19 µM, 60 µM, 45 µM and 36 µM.
As to `COc1cccc(CNc2nc(NC3CCC(N)CC3)nc3c2ncn3C)c1O` (centres unmarked) [Compound 32], the figures for the IC50 against CDK2/cyclin E and on CDK9/cyclin T were 0.22 µM and 0.18 µM, respectively.
As to `CCC(CO)Nc1nc(NCc2cccc(OC)c2O)c2ncn(C)c2n1` (centres unmarked) [Compound 34], the results for the IC50 at CDK2/cyclin E and on CDK9/cyclin T were 0.27 µM and 0.16 µM, respectively.
Turning to `CCn1cnc2c(NCc3cc(Cl)ccc3O)nc(NC3CCCCC3N)nc21` (centres unmarked) [Compound 47], the IC50 in series [1] was 55 µM; in series [2] it was 41 µM; in series [3] it was 32 µM.
As for `CCn1cnc2c(NCc3cc(Cl)ccc3O)nc(NC3CCC(N)CC3)nc21` (centres unmarked) [Compound 48], the results for the IC50 on CDK2/cyclin E and at CDK9/cyclin T were 0.14 µM and 0.09 µM, respectively.
On to `CCC(CO)Nc1nc(NCc2cc(Cl)ccc2O)c2ncn(CC)c2n1` (centres unmarked) [Compound 50], for which the concentration for half-maximal inhibition (IC50) at CDK2/cyclin E is 0.13 µM; at CDK9/cyclin T, 0.12 µM; in series [1] (Homo sapiens), 58 µM; in series [2] (Homo sapiens) it was 44 µM; in series [3] (Homo sapiens), 38 µM.
Turning to `CCn1cnc2c(NCc3cc(F)ccc3O)nc(NC3CCC(N)CC3)nc21` (centres unmarked) [Compound 51], the IC50 on CDK2/cyclin E was 0.16 µM; on CDK9/cyclin T, 0.1 µM; in series [1] (Homo sapiens) it was 52 µM; in series [2] (Homo sapiens), 40 µM; in series [3] (Homo sapiens) it was 32 µM.
Turning to `CCn1cnc2c(NCc3cc(C)ccc3O)nc(NC3CCCCC3N)nc21` (centres unmarked) [Compound 59], the IC50 was 0.12 µM against CDK2/cyclin E and 0.05 µM against CDK9/cyclin T.
As for `CCn1cnc2c(NCc3cccc(OC)c3O)nc(NC3CCC(N)CC3)nc21` (centres unmarked) [Compound 70], the IC50 against CDK2/cyclin E turned out to be 0.11 µM; at CDK9/cyclin T, 0.07 µM.
Taken in the same sequence, the figures for `CCC(CO)Nc1nc(NCc2ccc(OC)cc2O)c2ncn(CC)c2n1` (centres unmarked) [Compound 73] were 0.17 µM and 0.09 µM.
On to `CC(C)n1cnc2c(NCc3cc(Cl)ccc3O)nc(NC3CCCCC3N)nc21` (centres unmarked) [Compound 76], for which the IC50 against CDK2/cyclin E was 0.05 µM; against CDK9/cyclin T, 0.03 µM; in series [1] (Homo sapiens) it was 9.9 µM; in series [2] (Homo sapiens) it was 4.1 µM; in series [3] (Homo sapiens), 2.8 µM.
Consider `CC(C)n1cnc2c(NCc3cc(Cl)ccc3O)nc(NC3CCC(N)CC3)nc21` (centres unmarked) [Compound 77], for which the IC50 at CDK2/cyclin E was found to be 0.04 µM; at CDK9/cyclin T, 0.01 µM.
For the molecule `CC(C)n1cnc2c(NCc3cc(Cl)ccc3O)nc(NC(C)C(C)(C)O)nc21` (centres unmarked) [Compound 82], the IC50 against CDK2/cyclin E came to 0.04 µM; against CDK9/cyclin T, 0.01 µM.
In the case of `CC(C)n1cnc2c(NCc3cc(Cl)ccc3O)nc(NCCC(C)(C)O)nc21` [Compound 83], the IC50 was 0.02 µM on CDK2/cyclin E and 0.007 µM on CDK9/cyclin T.
`CCC(CO)Nc1nc(NCc2cccc(C)c2O)c2ncn(C(C)C)c2n1` (centres unmarked) [Compound 101] yielded a concentration for half-maximal inhibition (IC50) at CDK9/cyclin T of 0.04 µM.
On to `CCC(CO)Nc1nc(NCc2cccc(O)c2O)c2ncn(C(C)C)c2n1` (centres unmarked) [Compound 113], for which the IC50 is 0.04 µM on CDK9/cyclin T, 7.8 µM in series [1] (Homo sapiens), 8.4 µM in series [2] (Homo sapiens) and 4.5 µM in series [3] (Homo sapiens).
For `CC(C)n1cnc2c(NCc3cc(O)ccc3O)nc(NC3CCCCC3N)nc21` (centres unmarked) [Compound 121], the IC50 turned out to be 0.08 µM on CDK2/cyclin E and 0.07 µM against CDK9/cyclin T.
Turning to `COc1cccc(CNc2nc(NCC(C)O)nc3c2ncn3C(C)C)c1O` (centres unmarked) [Compound 127], the IC50 on CDK2/cyclin E worked out at 0.08 µM; against CDK9/cyclin T, 0.06 µM.
On to `COc1cccc(CNc2nc(NC3CCC(O)CC3)nc3c2ncn3C(C)C)c1O` (centres unmarked) [Compound 136], for which the IC50 on CDK2/cyclin E amounted to 0.05 µM; on CDK9/cyclin T, 0.03 µM.
Taken in the same sequence, the figures for `CCC(CO)Nc1nc(NCc2ccc(OC)cc2O)c2ncn(C(C)C)c2n1` (centres unmarked) [Compound 139] were 0.09 µM and 0.04 µM.
Take `COc1ccc(O)c(CNc2nc(NC3CCCCC3N)nc3c2ncn3C(C)C)c1` (centres unmarked) [Compound 143]: the concentration for half-maximal inhibition (IC50) was 13.1 µM in series [1] and 5 µM in series [3].
For `NC1CCCCC1Nc1nc(NCc2cc(Cl)ccc2O)c2ncn(Cc3ccccc3)c2n1` (centres unmarked) [Compound 179], the IC50 in series [1] was 19.5 µM; in series [2] it was 10.2 µM; in series [3], 8.7 µM.
For `NC1CCCCC1Nc1nc(NCc2cc(F)ccc2O)c2ncn(Cc3ccccc3)c2n1` (centres unmarked) [Compound 186], in that order: 15.4 µM, 9.3 µM and 6.9 µM.
As to `CCC(CC)n1cnc2c(NCc3cc(Cl)ccc3O)nc(NC3CCCCC3N)nc21` (centres unmarked) [compound 223], the IC50 was 0.08 µM at CDK2/cyclin E; 0.05 µM at CDK9/cyclin T; 17.6 µM in series [1]; 6.8 µM in series [2]; 4.8 µM in series [3].
With `CCC(CC)n1cnc2c(NCc3cc(F)ccc3O)nc(NC3CCCCC3N)nc21` (centres unmarked) [compound 226], the IC50 in series [1] was 12.4 µM; in series [2] it was 4.3 µM; in series [3] it was 4.1 µM.
With `CCC(CC)n1cnc2c(NCc3cc(F)ccc3O)nc(NC3CCC(N)CC3)nc21` (centres unmarked) [compound 227], the results for the IC50 against CDK2/cyclin E and against CDK9/cyclin T were 0.06 µM and 0.01 µM, respectively.
`CCC(CO)Nc1nc(NCc2cccc(OC)c2O)c2ncn(C(CC)CC)c2n1` (centres unmarked) [compound 237]: the IC50 worked out at 0.04 µM against CDK2/cyclin E and 0.02 µM against CDK9/cyclin T.
Take `CCC(CC)n1cnc2c(NCc3cccc(OC)c3O)nc(NC3CCCCC3N)nc21` (centres unmarked) [compound 238]: the figures for the IC50 against CDK2/cyclin E and on CDK9/cyclin T were 0.06 µM and 0.04 µM, respectively.
On to `CCC(CO)Nc1nc(NCc2cc(OC)ccc2O)c2ncn(C(CC)CC)c2n1` (centres unmarked) [compound 240], for which the results for the IC50 on CDK2/cyclin E and against CDK9/cyclin T were 0.1 µM and 0.07 µM, respectively.
